# According to patent US12370212B2, “Intradialytic use of sodium thiosulfate” (Hope Medical Enterprises, Inc., priority 2017, dated 2025):
# Like-named read-outs stand apart in the source and are kept apart here.
# Tests used:
# [1] = 60 mg sample, 2 mL of 0.1 N hydrochloric acid, 80° C., approximately 24 hours
# Method: (§1) Concentration of thiosulfate in samples was assayed by ion chromatography. The ion chromatograph was equipped with an electrochemical conductivity detector and a Dionex IonPacAS12A analytical column. The sodium thiosulfate content in the samples tested was calculated against an external sodium thiosulfate standard. USP Sodium Thiosulfate Reference Standard (Item Number 1615107) was the testing standard (United States Pharmacopeia. Rockville, Maryland).
# [2] = for Sulfate Concentration / Sulfide Concentration / Sulfite Concentration: degradation product, dialysate bicarbonate concentrate + sodium thiosulfate; for Measured Sodium Thiosulfate Concentration: dialysate bicarbonate concentrate, room temperature, expected 1.61 mg/mL
# Method: as §1
# Example 2 was performed to determine the stability of sodium thiosulfate in dialysate bicarbonate concentrate solution. At room temperature, 12500 mg sodium thiosulfate (50 mL of 250 mg/mL solution) was added to 7,700 mL of dialysate bicarbonate concentrate solution. The thiosulfate concentration of the dialysate bicarbonate concentrate solution was analyzed by ion chromatography 1) before addition of sodium thiosulfate; 2) 5 minutes after the addition of sodium thiosulfate; and 3) 2 hours after the addition of sodium thiosulfate.
# [3] = mixed dialysate exiting hemodialysis machine; expected 0.0608 mg/L
# Method: as §1
# The machine was primed in bypass mode (dialysate and ultrafiltration rates set at zero) using normal saline.
# [4] = for Thiosulfate Concentration After the Addition of Sodium Thiosulfate (Time = 60 Min): average of two samples
# Method: as §1
# Dialysate bicarbonate concentrate solution was prepared by adding 1 package of Centrisol© MB-330 Series Sodium Bicarbonate Concentrate powder (650 g) to 7.7 liters of purified water.
# The hemodialysis machine mixed the bicarbonate concentrate solution and acid concentrate solution with the dilution ratio of 1 part of an acid concentrate solution, 1.72 parts of a bicarbonate concentrate solution, and 42.38 parts of purified water. The machine was primed in bypass mode (dialysate and ultrafiltration rates set at zero) using normal saline. After priming, the hemodialysis machine was run in “Therapy Mode” with the following settings: blood flow rate 300 mL/minute, dialysate flow rate 600 mL/minute, ultrafiltration rate 0 mL/minute.
# An aqueous solution of sodium thiosulfate was prepared by dissolving 25 mg of sodium thiosulfate in 1 liter of purified water. […] This valve was placed in the dialysate tubing approximately eight inches upstream of the dialyzer (pre-filter). Two sampling ports were placed four inches upstream (pre-dialyzer sampling port) and ten inches downstream (post-dialyzer sampling port) from the dialyzer to collect samples of dialysate for […] assay by ion chromatography.
# The infusion pump infused the sodium thiosulfate solution into the tubing through the valve at a rate of 250 mL/hour (4.16 mL/minute).
# Normal saline flowed into the dialyzer at a rate of 300 mL/minute from the Arterial line and exited the dialyzer through the Venous line. Samples of saline were collected from the venous side of the dialyzer.
# [5] = during the first hour of hemodialysis; cited from earlier work
# [6] = material safety data sheet; cited from earlier work
structure (smiles),measurement,setting,value
"O=S(O)(O)=S [Sodium Thiosulfate, sodium thiosulfate]",percentage of thiosulfate degradation,[1],28.6%
same,Sulfate Concentration,[2]; after 5 minutes,4.4 µg/mL
same,Sulfide Concentration,[2]; after 5 minutes,<2.5 µg/mL
same,Sulfite Concentration,[2]; after 5 minutes,5.9 µg/mL
same,Sulfate Concentration,[2]; after 2 hours,4.3 µg/mL
same,Sulfide Concentration,[2]; after 2 hours,<2.5 µg/mL
same,Sulfite Concentration,[2]; after 2 hours,5.4 µg/mL
same,Measured Sodium Thiosulfate Concentration,[2]; after 5 minutes,1.65 mg/mL
same,Measured Sodium Thiosulfate Concentration,[2]; after 2 hours,1.65 mg/mL
same,stability in dialysate bicarbonate concentrate solution (in words),[2]; over 2 hours,stable
same,Thiosulfate Concentration by Assay,[3],0.001824
same,passage along or through dialyzer (in words),[4]; added to unspiked dialysate between hemodialysis machine and dialyzer membrane,can either pass along or pass through a dialyzer
same,Thiosulfate Concentration After the Addition of Sodium Thiosulfate (Time = 60 Min),[4]; dialysate after dialyzer,2.20 µM
same,Thiosulfate Concentration After the Addition of Sodium Thiosulfate (Time = 60 Min),[4]; dialysate before dialyzer,4.04 µM
same,Thiosulfate Concentration After the Addition of Sodium Thiosulfate (Time = 60 Min),[4]; saline solution after dialyzer (venous side),1.62 µM
same,decline of concentration of thiosulfate in the plasma,[5],over 60%
same,behaviour on contact with acid (in words),[6],decomposes on contact with acid
